Results taken from patent US12534487B2, “Compounds for use as iron(III) MRI contrast agents” (The Research Foundation for The State University of New York, priority 2017, dated 2026).

Columns and labels:
[1] = Phantom (in vitro) MR imaging at 4.7 T: T1 and T2 relaxivity; assay type: physicochemical; conditions: neutral pH, Hepes buffer, 37° C.
Procedure: Eq. 2 predicts that greater numbers of bound water molecules and rapid ligand exchange rate constants (short lifetimes for bound water (Tm)) are advantageous. […] There is an analogous relationship for second-sphere waters although the number and residence time is not well defined. The R1 and R2 relaxivity (from T1 and T2 relaxation rate constants at 4.7 T at 37° C. is shown for several complexes in FIG. 13 and FIG. 14. Data on a 3 Tesla MRI scanner are shown in FIG. 21. Table 1 summarizes R1 and R2 relaxivity data for several Fe(III) complexes.
Preparation of Samples for Phantom MR Imaging: Samples for phantom imaging experiments contained 50-500 μM complex, 20 mM HEPES and 100 mM NaCl. […]
Phantom (in vitro) imaging at 4.7 T. MRI acquisitions were performed using a General Electric 4.7T/33 cm horizontal bore magnet (GE NMR instruments, Fremont, CA) incorporating AVANCE digital electronics (Bruker BioSpec platform with ParaVision v 3.0.2 acquisition software, Bruker Medical, Billerica, MA). […] Signal intensities at each repetition time were sampled by taking the mean intensity within regions of interest (ROI's) using commercially available image processing software (Analyze 7.0, AnalyzeDirect, Overland, KS), and R1 and SMAX were calculated by nonlinear fitting of the equation using Matlab's Curve Fitting Toolbox (Matlab 7.0, MathWorks Inc., Natick, MA). […]

[2] = system: mice; assay: In vivo MRI contrast enhancement in mice at 4.7 T; set-up: species or system mouse
Procedure: The necessary solubility of the complexes depends on their effectiveness in producing contrast. For Fe(III) T1 contrast agents that have good relaxivity, the complexes need 100 μM-2 mM solubility. However, other additives such as human serum albumin (has) or meglumine may be used to increase solubility and/or increase relaxivity. Solubility is generally measured in aqueous solution at near neutral pH (e.g., 6.5 to 7.5, including all 0.1 pH values and ranges therebetween) in 100 mM NaCl with 25 mM carbonate and 0.4 mM phosphate. The dose of the composition to be used will necessarily be dependent upon the needs of the individual to whom the composition of the disclosure is to be administered. These factors include, but are not necessarily limited to the weight, age, sex, and medical history of the individual. Shown in FIGS. 15, 16, 17, 18, 19, 20 are data from in vivo MRI studies done in mice. The contrast agent, Fe(TOB) was injected at 0.20 mL of 6.3 mM Fe-TOB-HSA (10.5 mg of HAS or two equivalents of megluamine). […] In vivo imaging in mice. Efficacy of the Fe(III) complexes for in vivo contrast enhancement was studied on at 4.7 T Bruker preclinical MRI in a mouse model (BABC/cJ, Jackson Laboratory). Sealed phantoms were included for imaging sessions for signal normalization. Prior to administration of contrast agents, scans were acquired to serve as baseline values of enhancement. […] Compounds were injected intravenously via tail vein at a dose of 50 μmol [Fe]/kg and MR data were acquired continuously for up to 1 hour after injection to study distribution and clearance kinetics. Thus, 0.2 mL of a 6 mM stock solution was injected into the mouse or 0.05 mmol/Kg. Additional scans were acquired at 3 and 6 hours post-injection to characterize slower clearance rates by the biliary system. The FDA-approved […] contrast agent gadopentetate dimeglumine (Gd-DTPA, Magnevist®) was injected into a separate cohort of mice at 50 μmol [Gd]/kg for comparison. For SPGR datasets, signal intensities were normalized to the phantoms and signal increase for each organ was measured, as well as an increase in contrast-to-noise ratios as compared to back muscle. Fe(III) concentrations were estimated by calculating the increase in T1 rates and dividing by the compound's relaxivity value as determined in vitro.

[3] = system: brain tumors; assay: MRI scans of mice with brain tumors; assay type: in vivo, mice (C57BL/6NCr); conditions: C57BL/6NCr mice, 0.05 or 0.1 mmol/kg
Procedure: Mice were dosed with Fe(TOB) at 0.05 mmol/kg Fe(TOB) complex or 0.1 mmol/kg Fe(TOB) complex.

[4] = Benzoate oxidation with peroxide and ascorbate (ROS production); conditions: 50 μM complex, 50 μM H2O2, 50 μM ascorbate, pH 7.2; [Fe(EDTA)]− oxidation set at 100%
Procedure: Benzoate oxidation with 50 μM complex, 50 μM H2O2 and 50 μM ascorbate at pH 7.2. [Fe(EDTA)]^− oxidation is set at 100%.
It is desirable that the Fe(III) complex remain in the trivalent oxidation state and not be reduced by, for example, peroxide, superoxide, ascorbate, or by glutathione at concentrations present in the extracellular medium of cells such as, for example, mammalian cells (e.g., human cells). Normally, a redox potential more negative than zero mV (<0 mV) versus NHE is sufficient. If the complex were to be reduced to Fe(II) and the Fe(II) complex and the complex has a positive redox potential versus NHE, reactive oxygen species may be produced, for example, as shown in FIG. 8. For example, [Fe(EDTA)]—has a redox potential of approximately 300 mV and produces ROS as shown by the assay in FIG. 11.

[5] = stated in text without conditions; cited from earlier work
[6] = 50 μmol/kg i.v., 4.7 T, compared with the other agents

With `CC([O-])CN1CCN(Cc2ccccc2)CCN(CC(C)[O-])CC1.[Fe+3]` (stereo not drawn) [Fe(TOB)] the “R1 (T1 relaxivity)” value ([1]; 4.7 Tesla MRI scanner, complex alone) was 2.5 mM⁻¹ s⁻¹, the “R1 with HSA” value ([1]; 4.7 Tesla, with human serum albumin) was 3.4 mM⁻¹ s⁻¹ and the “T1 contrast in kidneys” value [2, 6] was “greater contrast than Gd(DTPA) in kidney and liver”. For the same molecule, the “T1 contrast in liver” value [2, 6] was “greater contrast than Gd(DTPA) in kidney and liver”, the “Elimination by the biliary system (gall bladder enhancement)” value ([2]; 50 μmol/kg, 30′ and 4 h post-injection) was “strong enhancement of the gall bladder” and the “Removal from the blood” value ([2]; 50 μmol/kg, vs. Gd-DTPA) was “faster removal from the blood”. The “Uptake in kidneys and liver” value ([2]; 50 μmol/kg, vs. Gd-DTPA) was “Greater uptake”, the “Tissue with highest signal (T1 relaxivity differences in tissue)” value ([2]; 0.20 mL of 6.3 mM Fe-TOB-HSA, 30 minute period) was “highest signal is observed in the kidney cortex” and the “Contrast of brain tumors” value [3] was “produces contrast of brain tumors in mice”.

For `O=C([O-])CN(CCN(CC(=O)[O-])CC(=O)[O-])CC(=O)[O-].[Fe+3]` [[Fe(EDTA)]^−], the “Benzoate oxidation / ROS production” value [4] is listed as “produces ROS” and the redox potential [5] is listed as “approximately 300 mV”.

In the case of `CNC[C@H](O)[C@@H](O)[C@H](O)[C@H](O)CO.CNC[C@H](O)[C@@H](O)[C@H](O)[C@H](O)CO.O=C([O-])CN(CCN(CC(=O)[O-])CC(=O)O)CCN(CC(=O)[O-])CC(=O)O.[Gd+3]` [Gd(DTPA), gadopentetate dimeglumine, reference compound], the “T1 contrast in blood” value [2, 6] was “produces larger contrast in blood”.
